We go through 34 compounds from patent US8604034B2, “Substituted imidazo[1,2-α]pyrrolo[1,2-d]pyrazines for treating respiratory syncytial virus (RSV) infections” (Biota Scientific Management Pty Ltd., priority 2010, dated 2013).

Counter-ions that a name gives are not always drawn. Like-named read-outs stand apart in the source and are kept apart here.

For this assay, the system named is RSV A2. In words: RSV antiviral cytopathic effect (CPE) assay. Type of assay: cell-based. As to conditions: human respiratory syncytial virus, HEp-2, 120 h, HEp2 cells infected with RSV A2 (moi ~0.01), 5 days, MTT readout. The method, boiled down: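 HEp2 cells infected with RSV A2 (moi ~0.01) and incubated with serially diluted compound for 5 days at 37 °C. CPE read by MTT metabolism (absorbance 540/650 nm); uninfected cells gave cytotoxicity. EC50 and CC50 obtained by non-linear regression.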

[1] abbreviates: read-out: Activity Range (RSV A2 EC50).
The mark [2] stands for this setting: mean EC50, read-out: RSV A2 EC50.

Take `Cc1cc(C23Cn4cccc4C(=O)N2CCN3C(=O)c2conc2C)ccn1` (stereo not drawn) [Compound 119]: the EC50 under setting [1] was 50 to 99 nM and the EC50 under setting [2] was 96 nM.

With `Cc1ccc(C23Cn4cc(-c5cccnc5)cc4C(=O)N2CCN3C(=O)c2conc2C)nc1` (stereo not drawn) [Compound 120], the EC50 is, setting by setting: under setting [1], 50 to 99 nM; under setting [2], 87 nM.

With `Cc1cnc(C23Cn4cc(-c5cccnc5)cc4C(=O)N2CCN3C(=O)c2conc2C)cn1` (stereo not drawn) [Compound 121, 1-[(3-methyl-1,2-oxazol-4-yl)carbonyl]-10a-(5-methylpyrazin-2-yl)-7-(pyridin-3-yl)-2,3,10,10a-tetrahydro-1H,5H-imidazo[1,2-a]pyrrolo[1,2-d]pyrazin-5-one], the 50% effective concentration (EC50) by setting is: under setting [1], < 49 nM; under setting [2], 42 nM.

In the case of `Cc1nocc1C(=O)N1CCN2C(=O)c3cccn3CC12c1ccncc1` (stereo not drawn) [Compound 122, 1-[(3-methyl-1,2-oxazol-4-yl)carbonyl]-10a-(pyridin-4-yl)-2,3,10,10a-tetrahydro-1H,5H-imidazo[1,2-a]pyrrolo[1,2-d]pyrazin-5-one], the EC50 by setting is: under setting [1], 100 to 499 nM; under setting [2], 430 nM.

Turning to `Cc1ccc(C23Cn4c(C#N)ccc4C(=O)N2CCN3C(=O)c2conc2C)cn1` (stereo not drawn) [Compound 126], the EC50 was < 49 nM under setting [1] and 7.8 nM under setting [2].

For the compound `Cc1ccc(C23Cn4cc(-c5ccccn5)cc4C(=O)N2CCN3C(=O)c2conc2C)cn1` (stereo not drawn) [Compound 127], the half-maximal effective concentration (EC50) is, setting by setting: under setting [1], < 49 nM; under setting [2], 27 nM.

As to `COc1ccc(C23Cn4cc(-c5ccccn5)cc4C(=O)N2CCN3C(=O)c2conc2C)cn1` (stereo not drawn) [Compound 128], the EC50 under setting [1] was in the range of 50 to 99 nM and the EC50 under setting [2] worked out at 64 nM.

As for `Cc1nocc1C(=O)N1CCN2C(=O)c3cc(-c4ccccn4)nn3CC12c1ccc(F)cc1` (stereo not drawn) [Compound 129], the EC50 under setting [1] was 100 to 499 nM and the EC50 under setting [2] stood at 130 nM.

As for `COc1ccc(C23Cn4cccc4C(=O)N2CCN3C(=O)NCc2ccco2)cc1` (stereo not drawn) [Compound 130], the EC50 under setting [1] is > 10000 nM.

As for `COc1ccc(C23Cn4cccc4C(=O)N2CCN3S(=O)(=O)c2ccccc2)cc1` (stereo not drawn) [Compound 131], the EC50 under setting [1] is > 10000 nM.

As to `Cc1ccc(C23Cn4cc(-c5cnn(C)c5)cc4C(=O)N2CCN3C(=O)c2conc2C)cn1` (stereo not drawn) [Compound 132], the EC50 was < 49 nM under setting [1] and 31 nM under setting [2].

As for `COc1ccc(C23Cn4c(C#N)ccc4C(=O)N2CCN3C(=O)c2conc2C)cn1` (stereo not drawn) [Compound 133], the EC50 was < 49 nM under setting [1] and 7 nM under setting [2].

Consider `Cc1ccc(C23Cn4cc(-c5cnn(C)c5)cc4C(=O)N2CCN3C(=O)c2conc2C)nc1` (stereo not drawn) [Compound 134], for which the EC50 under setting [1] is < 49 nM and the concentration giving a half-maximal response (EC50) under setting [2] was 31 nM.

`Cc1ccc(C23Cn4cc(-c5ccncc5)cc4C(=O)N2CCN3C(=O)c2conc2C)cn1` (stereo not drawn) [Compound 135]: the EC50 is < 49 nM under setting [1] and 9.1 nM under setting [2].

Consider `COc1ccc(C23Cn4cccc4C(=O)N2CCN3C(=O)c2nonc2C)cc1` (stereo not drawn) [Compound 136], for which the EC50 reads like this: under setting [1], 500 to 10000 nM; under setting [2], 890 nM.

`COc1ccc(C23Cn4cccc4C(=O)N2CCN3C(=O)c2ccsc2)cc1` (stereo not drawn) [Compound 137]: the EC50 under setting [1] lay within 500 to 10000 nM and the EC50 under setting [2] was 6600 nM.

As for `COc1ccc(C23Cn4nc(-c5ccccn5)cc4C(=O)N2CCN3C(=O)c2conc2C)cc1` (stereo not drawn) [Compound 138], the EC50 was 500 to 10000 nM under setting [1] and 4200 nM under setting [2].

Consider `Cc1ccc(C23Cn4nc(-c5ccccn5)cc4C(=O)N2CCN3C(=O)c2conc2C)cc1` (stereo not drawn) [Compound 139], for which the EC50 is 50 to 99 nM under setting [1] and 66 nM under setting [2].

Turning to `Cc1nocc1C(=O)N1CCN2C(=O)c3cc(-c4cccn4C)nn3CC12c1ccc(Cl)cc1` (stereo not drawn) [Compound 140], the EC50 is 500 to 10000 nM under setting [1] and 550 nM under setting [2].

As to `Cc1nocc1C(=O)N1CCN2C(=O)c3cc(-c4cccs4)nn3CC12c1ccc(Cl)cc1` (stereo not drawn) [Compound 141], the EC50 under setting [1] was < 49 nM and the EC50 under setting [2] worked out at 39 nM.

As to `Cc1nocc1C(=O)N1CCN2C(=O)c3cccn3CC12c1ccc(O)nc1` (stereo not drawn) [Compound 142, 10a-(6-hydroxypyridin-3-yl)-1-[(3-methyl-1,2-oxazol-4-yl)carbonyl]-2,3,10,10a-tetrahydro-1H,5H-imidazo[1,2-a]pyrrolo[1,2-d]pyrazin-5-one], the EC50 reads like this: under setting [1], 500 to 10000 nM; under setting [2], 6700 nM.

Turning to `Cc1nocc1C(=O)N1CCN2C(=O)c3cccn3CC12c1ccc(=O)n(C)c1` (stereo not drawn) [Compound 143, 1-[(3-methyl-1,2-oxazol-4-yl)carbonyl]-10a-(1-methyl-6-oxo-1,6-dihydropyridin-3-yl)-2,3,10,10a-tetrahydro-1H,5H-imidazo[1,2-a]pyrrolo[1,2-d]pyrazin-5-one], the EC50 is 500 to 10000 nM under setting [1] and 750 nM under setting [2].

Turning to `Cc1nocc1C(=O)N1CCN2C(=O)c3cc(-c4cnn(C)c4)cn3CC12c1ccc(CO)cc1` (stereo not drawn) [Compound 144], the EC50 is 50 to 99 nM under setting [1] and 79 nM under setting [2].

With `COc1ccc(C23Cn4cc(-c5nnnn5C)cc4C(=O)N2CCN3C(=O)c2conc2C)cc1` (stereo not drawn) [Compound 145, 10a-(4-methoxyphenyl)-1-[(3-methyl-1,2-oxazol-4-yl)carbonyl]-7-(1-methyl-1H-tetrazol-5-yl)-2,3,10,10a-tetrahydro-1H,5H-imidazo[1,2-a]pyrrolo[1,2-d]pyrazin-5-one], the EC50 runs as follows: under setting [1], 500 to 10000 nM; under setting [2], 3700 nM.

Consider `COc1ccc(C23Cn4cc(-c5nnn(C)n5)cc4C(=O)N2CCN3C(=O)c2conc2C)cc1` (stereo not drawn) [Compound 146, 10a-(4-methoxyphenyl)-1-[(3-methyl-1,2-oxazol-4-yl)carbonyl]-7-(2-methyl-2H-tetrazol-5-yl)-2,3,10,10a-tetrahydro-1H,5H-imidazo[1,2-a]pyrrolo[1,2-d]pyrazin-5-one], for which the EC50 is < 49 nM under setting [1] and 46 nM under setting [2].

For the compound `COc1ccc(C23Cn4cc(CN)cc4C(=O)N2CCN3C(=O)c2conc2C)cc1` (stereo not drawn) [Compound 147, 7-(aminomethyl)-10a-(4-methoxyphenyl)-1-[(3-methyl-1,2-oxazol-4-yl)carbonyl]-2,3,10,10a-tetrahydro-1H,5H-imidazo[1,2-a]pyrrolo[1,2-d]pyrazin-5-one; trifluoroacetate salt], the EC50 reads like this: under setting [1], 100 to 499 nM; under setting [2], 390 nM.

As for `Cc1nocc1C(=O)N1CCN2C(=O)c3cccc(=O)n3CC12c1ccc(F)cc1` (stereo not drawn) [Compound 148], the EC50 runs as follows: under setting [1], < 49 nM; under setting [2], 38 nM.

With `COc1ccc(C23Cn4c(cccc4=O)C(=O)N2CCN3C(=O)c2conc2C)cc1` (stereo not drawn) [Compound 149], the EC50 under setting [1] lay in the range of 100 to 499 nM and the EC50 under setting [2] was determined as 130 nM.

As to `Cc1ccc(C23Cn4c(cccc4=O)C(=O)N2CCN3C(=O)c2conc2C)cc1` (stereo not drawn) [Compound 150], the EC50 under setting [1] is < 49 nM and the concentration giving a half-maximal response (EC50) under setting [2] was 11 nM.

On to `Cc1ccc(C23Cn4c(C)ccc4C(=O)N2CCN3C(=O)c2conc2C)cn1` (stereo not drawn) [Compound 151], for which the EC50 is, setting by setting: under setting [1], < 49 nM; under setting [2], 8.7 nM.

With `COc1ccc(C23Cn4c(C)ccc4C(=O)N2CCN3C(=O)c2conc2C)cn1` (stereo not drawn) [Compound 152], the EC50 was < 49 nM under setting [1] and 5.8 nM under setting [2].

Turning to `Cc1nocc1C(=O)N1CCN2C(=O)c3ccc(C)n3CC12c1ccc(CO)cc1` (stereo not drawn) [Compound 153], the EC50 under setting [1] is < 49 nM and the EC50 under setting [2] is 6.2 nM.

Take `Cc1nocc1C(=O)N1CCN2C(=O)c3ccc(C)n3CC12c1ccc(F)cc1` (stereo not drawn) [Compound 154, 10a-(4-fluorophenyl)-8-methyl-1-[(3-methyl-1,2-oxazol-4-yl)carbonyl]-2,3,10,10a-tetrahydro-1H,5H-imidazo[1,2-d]pyrrolo[1,2-d]pyrazin-5-one]: the EC50 under setting [1] is < 49 nM and the EC50 under setting [2] is 2.3 nM.

As for `COc1ccc(C23Cn4nccc4C(=O)N2CCN3C(=O)c2conc2C)cc1` (stereo not drawn) [Compound 157], the EC50 was 100 to 499 nM under setting [1] and 360 nM under setting [2].
